Where “and” joins values, the source holds several entries; their conditions need not be identical. Equal entries are not always repeated.
Legend:
Assay type in all cases: in vivo
[1] = system: weed species BRAPP, COMBE, DIGSA, POLCO; assay: Adjuvant efficacy with mesotrione, glasshouse spray test, average over all species (BRAPP set); details: mesotrione SC, mean over 30 and 60 g/ha; adjuvant 0.2% v/v (none in No Adjuvant rows); 21 days; Tests 1-3, species set with BRAPP (COMBE only in Test 2)
Description: (§1) The efficacy of adjuvants 1-12 as an adjuvant for the herbicide mesotrione was tested in a glasshouse against four weed species sown into standard soil in pots and cultivated under controlled conditions in a glasshouse (at 24/18° C. day/night; 16 hours light; 65% humidity). Mesotrione was added to the spray tank as a standard SC (suspension concentrate) formulation.
(§2) The spray tests were also carried out using mesotrione in conjunction with adjuvants 1-12. The adjuvants were added to the spray solution at a rate of 0.2% v/v unless otherwise stated. All spray solutions also contained 10% w/w of iso-Propanol. The weed species and their BBCH growth stage at spraying were Brachiaria platyphylla (BRAPP; growth stage 13-14) or Brachiaria plantaginea (BRAPL; growth stage 13-14), Commelina benghalensis (COMBE; growth stage 13), Digitaria sanguinalis (DIGSA; growth stage 14), and Polygonum convolvulus (POLCO; growth stage 13-14). Each spray test was replicated three times.
(§3) The test plants were then grown in a glasshouse under controlled conditions (at 24/18° C. day/night; 16 hours light; 65% humidity) and watered twice a day. The efficacy of the herbicide was assessed visually and expressed as a percentage of the leaf area killed. Samples were assessed at a time period of 21 days following application. The results shown in Table 3 below are mean averages over the two rates of mesotrione and the three replicates.

[2] = system: four weed species (ABUTH, CHEAL, IPOHE, SETVI); assay: Adjuvant efficacy with fomesafen, glasshouse spray test, average over all species; details: fomesafen sodium salt SL, mean over 100 and 200 g/ha, adjuvant 0.2% v/v (none in No Adjuvant rows), 21 days, average of ABUTH
Description: (§4) The efficacy of adjuvants 1-12 as adjuvants for the herbicide fomesafen (as the sodium salt) were tested in a glasshouse against four weed species, sown into standard soil in pots and cultivated under controlled conditions in a glasshouse (at 24/18° C. day/night; 16 hours light, 65% humidity). Fomesafen sodium salt was added to the spray tank as a standard SL (soluble concentrate) formulation.
(§5) The spray tests were also carried out using fomesafen in conjunction with adjuvants 1-12. Unless otherwise stated, the adjuvants were added to the spray solution at a rate of 0.2% v/v. All spray solutions also contained 12.5% v/v of iso-Propanol to normalise the retention of the sprays on the hydrophobic plant surfaces. The weed species and their BBCH growth stage at spraying were Abutilon theophrasti (ABUTH; growth stage 12-13), Chenopodium album (CHEAL; growth stage 15), Ipomea hederacea (IPOHE; growth stage 12), and Setaria viridis (SETVI; growth stage 14). Each spray test was replicated three times. The test plants were then grown in a glasshouse under controlled conditions (at 24/18° C. day/night; 16 hours light; 65% humidity) and watered twice a day.
(§6) The efficacy of the herbicide was assessed visually and expressed as a percentage of the leaf area killed. Samples were assessed at a time period of 21 days following application. The results shown in Table 2 below are mean averages over the two rates of fomesafen, the three replicates […].

Setaria viridis (SETVI) = assay: Adjuvant efficacy with fomesafen, glasshouse spray test; details: fomesafen sodium salt SL, mean over 100 and 200 g/ha and 3 replicates; adjuvant 0.2% v/v (none in No Adjuvant rows); % leaf area killed, 21 days after application; Tests 1-4 separate runs
Description: as §4, §5, §6

[3] = system: Chenopodium album (CHEAL); assay: as above; details: fomesafen sodium salt SL, mean over 100 and 200 g/ha and 3 replicates; adjuvant 0.2% v/v (none in No Adjuvant rows); % leaf area killed, 21 days after application; Tests 1-4 separate runs
Description: as §4, §5, §6

Ipomea hederacea (IPOHE) = assay: as above; details: fomesafen sodium salt SL, mean over 100 and 200 g/ha and 3 replicates; adjuvant 0.2% v/v (none in No Adjuvant rows); % leaf area killed, 21 days after application; Tests 1-4 separate runs
Description: as §4, §5, §6

[4] = system: Abutilon theophrasti (ABUTH); assay: as above; details: fomesafen sodium salt SL, mean over 100 and 200 g/ha and 3 replicates; adjuvant 0.2% v/v (none in No Adjuvant rows); % leaf area killed, 21 days after application; Tests 1-4 separate runs
Description: as §4, §5, §6

Septoria tritici [5] = assay: Adjuvant efficacy with epoxiconazole on inoculated wheat plants; details: epoxiconazole SC 1.5, 4, 8.5 and 20 mg/l, 4 replicates, adjuvant 0.1% v/v (none in No Adjuvant rows), sprayed 4 days after inoculation, percentage of leaf area infected 17-18 days after infection, Tests 1-3 separate runs
Description: Adjuvants 6, 7, 8 and 10 were tested as adjuvants for agrochemical compositions comprising epoxiconazole.
Two week old wheat plants were inoculated with the fungus Septoria tritici. […] All spray solutions also contained 10% v/v of iso-Propanol. The leaves of the plants were assessed visually 17-18 days after infection and the damage was expressed as the percentage of the leaf area infected.

[6] = system: Brachiaria platyphylla (BRAPP); assay: Adjuvant efficacy with mesotrione, glasshouse spray test; details: mesotrione SC, mean over 30 and 60 g/ha and 3 replicates; adjuvant 0.2% v/v (none in No Adjuvant rows); % leaf area killed, 21 days after application; Tests 1-3 separate runs
Description: as §1, §2, §3

Septoria tritici [7] = assay: Adjuvant efficacy with isopyrazam on inoculated wheat plants; details: isopyrazam SC, mean over 6.5, 16, 40 and 100 mg/l and 4 replicates, sprayed 4 days after inoculation, percentage of leaf area infected 17-18 days after infection, Tests 1-3 separate runs
Description: Adjuvants 6, 7, 8 and 10 were tested as adjuvants for agrochemical compositions comprising isopyrazam.
Two week old wheat plants were inoculated with the fungus Septoria tritici. […] All spray solutions also contained 10% v/v of iso-Propanol. The leaves of the plants were assessed visually 17-18 days after infection and the damage was expressed as the percentage of the leaf area infected. Each spray test was replicated four times across the four application rates.
The results shown in Table 6 below are mean averages over the four rates of isopyrazam and the four replicates.

[8] = system: Commelina benghalensis (COMBE); assay: Adjuvant efficacy with mesotrione, glasshouse spray test; details: mesotrione SC, mean over 30 and 60 g/ha and 3 replicates; adjuvant 0.2% v/v (none in No Adjuvant rows); % leaf area killed, 21 days after application; Tests 2 and 4
Description: as §1, §2, §3

Row | SMILES | Mean % Herbicidal Activity Average over all Species [1] [%] | Mean % Herbicidal Activity Average over all Species [2] | Mean % Herbicidal Activity SETVI (Setaria viridis (SETVI)) | Mean % Herbicidal Activity CHEAL [3] | Mean % Herbicidal Activity IPOHE (Ipomea hederacea (IPOHE)) | Mean % Herbicidal Activity ABUTH [4] | Disease Damage Mean (Septoria tritici [5]) | Mean % Herbicidal Activity BRAPP [6] [%] | Disease Damage Mean (Septoria tritici [7]) | Mean % Herbicidal Activity COMBE [8] [%]
1 | CCCCCCCCC=CCCCCCCCCOc1cc(OCCOCCOCCOCCOCCOCCOCCOCCOCCOCCOC)ncn1 [Adjuvant 10] | 80 | 68% and 46% | 65% and 17% | 60% and 88% | 92% and 50% | 56% and 28% | 26% | 61 | 17% and 14% | 
2 | CCCCCCOc1cc(OCCOCCOCCOCCOCCOCCOCCOCCOCCOCCOC)ncn1 [Adjuvant 2] | 75 | 68% | 53% | 68% | 95% | 57% |  | 52 |  | 
3 | CCCCCCOc1cc(OCCOCCOC)ncn1 [Adjuvant 1] | 72 | 77% | 65% | 79% | 91% | 74% |  | 53 |  | 
4 | CCCCCCCCCOc1cc(OCCOCCOCCOCCOCCOCCOCCOCCOCCOCCOC)ncn1 [Adjuvant 5] | 71 | 57% | 49% | 55% | 64% | 60% |  | 48 |  | 
5 | CCCCCCCCC=CCCCCCCCCOc1cc(OCCOCCOC)ncn1 [Adjuvant 9] | 81 | 67% | 64% | 64% | 88% | 52% |  | 69 |  | 
6 | CCCCCCCCCCCCOc1cc(OCCOCCOCCOCCOCCOCCOCCOCCOCCOCCOC)ncn1 [Adjuvant 7] | 73 | 71% | 45% | 94% | 98% | 46% | 12% | 68 | 12% | 
7 | CCCCCCOc1cc(OCCOCCOCCOCCOCCOCCOCCOCCOCCOCCOCCOCCOCCOCCOCCOCCOCCOCCOCCOCCOC)ncn1 [Adjuvant 3] | 71 | 56% | 37% | 54% | 88% | 47% |  | 38 |  | 
8 | CCCCCCCCCOc1cc(OCCOCCOCCOCCOCCOCCOCCOC)ncn1 [Adjuvant 4] | 73 | 61% | 53% | 45% | 93% | 51% |  | 43 |  | 
9 | CCCCCCCCCCCCOc1cc(OCCOCCOCCOCCOCCOCCOCCOC)ncn1 [Adjuvant 6] | 76 | 50% | 25% | 80% | 64% | 31% | 42% and 10% and 21% | 53 | 7% and 9% and 12% | 83
10 | CCCCCCCCCCCCOc1cc(OCC(C)OCC(C)OCC(C)OC)ncn1 (stereo not drawn) [Adjuvant 12] | 84 | 82% | 77% | 80% | 98% | 74% |  | 69 |  | 
11 | CCCCCCCCC=CCCCCCCCCOc1cc(OCCOCCOCCOCCOCCOCCOCCOCCOCCOCCOCCOCCOCCOCCOCCOCCOCCOCCOCCOCCOC)ncn1 [Adjuvant 11] | 78 | 66% | 39% | 80% | 98% | 48% |  | 58 |  | 
